Results: patent US12486290B2, “Isoindolinone and indazole compounds for the degradation of EGFR” (C4 THERAPEUTICS, INC., priority 2019, dated 2025)

Experiments:
Assay type in all cases: cell-based
[1] = target: T1, EGFR T790M/L858R (NCI-H1975 cells) (Homo sapiens, UniProt P00533, L858R/T790M); assay: EGFR (L858R) degradation analysis, Total EGFR (L858R) HTRF, NCI-H1975 cells; details: 6 hours
T1 construct: NCI-H1975 (harboring EGFR heterozygous T790M/L858R mutations); host or cells: NCI-H1975
Procedure, shortened: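 Cells (10000/well NCI-H1975 and NCI-H1975+CS, 1000/well NCI-H3255) treated with 11-point half-log titrations from 10 μM top, in duplicate, for 6 hours at 37° C., 5% CO2. Total EGFR (L858R) quantified by HTRF FRET; untreated cells as negative and cell-free wells as positive control.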

[2] = target: T2, EGFR L858R (NCI-H3255 cells) (Homo sapiens, UniProt P00533, L858R); assay: EGFR (L858R) degradation analysis, Total EGFR (L858R) HTRF, NCI-H3255 cells; details: 6 hours
T2 construct: NCI-H3255 (harboring EGFR heterozygous L858R mutation); host or cells: NCI-H3255
T2 sequence (P00533 25-1210 L858R): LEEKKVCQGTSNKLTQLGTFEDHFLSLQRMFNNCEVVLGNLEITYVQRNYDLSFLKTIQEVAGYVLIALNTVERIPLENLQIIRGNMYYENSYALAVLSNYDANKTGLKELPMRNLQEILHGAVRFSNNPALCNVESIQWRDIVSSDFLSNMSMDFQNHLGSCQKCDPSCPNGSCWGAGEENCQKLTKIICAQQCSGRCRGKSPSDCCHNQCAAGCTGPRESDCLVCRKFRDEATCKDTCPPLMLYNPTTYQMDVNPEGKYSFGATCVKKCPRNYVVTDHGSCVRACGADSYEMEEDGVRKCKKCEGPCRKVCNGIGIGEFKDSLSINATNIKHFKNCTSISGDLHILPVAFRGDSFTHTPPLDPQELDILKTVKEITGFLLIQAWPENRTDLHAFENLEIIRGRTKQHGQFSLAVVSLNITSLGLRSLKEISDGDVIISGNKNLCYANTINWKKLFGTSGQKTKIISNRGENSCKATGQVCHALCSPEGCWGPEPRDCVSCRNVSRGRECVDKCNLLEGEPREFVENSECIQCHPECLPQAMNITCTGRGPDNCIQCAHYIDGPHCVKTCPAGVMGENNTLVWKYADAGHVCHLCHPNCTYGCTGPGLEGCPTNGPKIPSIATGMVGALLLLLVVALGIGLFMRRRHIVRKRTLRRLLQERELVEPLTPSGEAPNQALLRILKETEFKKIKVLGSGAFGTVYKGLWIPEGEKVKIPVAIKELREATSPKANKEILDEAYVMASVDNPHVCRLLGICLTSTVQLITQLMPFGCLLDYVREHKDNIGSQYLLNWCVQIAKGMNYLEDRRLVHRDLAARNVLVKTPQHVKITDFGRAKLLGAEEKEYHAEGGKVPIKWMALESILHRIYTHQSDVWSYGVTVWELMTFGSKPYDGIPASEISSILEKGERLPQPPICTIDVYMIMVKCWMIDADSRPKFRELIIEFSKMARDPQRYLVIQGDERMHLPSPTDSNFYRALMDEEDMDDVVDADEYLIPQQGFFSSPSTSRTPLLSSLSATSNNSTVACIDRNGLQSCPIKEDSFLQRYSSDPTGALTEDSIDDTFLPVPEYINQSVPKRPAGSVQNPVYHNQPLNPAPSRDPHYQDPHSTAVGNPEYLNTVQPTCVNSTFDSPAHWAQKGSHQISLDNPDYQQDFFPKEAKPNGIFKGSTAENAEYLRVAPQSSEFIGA
Excerpt: (§1) NCI-H1975 (harboring EGFR heterozygous T790M/L858R mutations) and NCI-H3255 (harboring EGFR heterozygous L858R mutation) were purchased from ATCC and NCI, respectively. NCI-H1975+CS (harboring EGFR heterozygous T/790M/L858R/C797S mutations) was generated using CRISPR technology to introduce the additional C797S mutation by Horizon Discovery. RPMI 1640 no-phenol red medium and fetal bovine serum (FBS) were purchased from Gibco (Grand Island, NY, USA). Cell culture flasks and 384-well microplates were acquired from VWR (Radnor, PA, USA). Total EGFR (L858R) HTRF assay kits were purchased from Cisbio (Bedford, MA, USA).
(§2) Degradation of EGFR protein containing L858R mutation was determined based on quantification of FRET signal using Total EGFR (L858R) HTRF assay kit. Test compounds were added to the 384-well plate from a top concentration of 10 μM with 11 points, half log titration in duplicates. NCI-H1975, NCI-H1975+CS or NCI-H3255 cells were added into 384-well plates at a cell density of 10000, 10000 or 1000 cells per well, respectively. The plates were kept at 37° C. with 5% CO2 for 6 hours. Cells treated in the absence of the test compound were the negative control. Positive control was set by wells containing all reagents but no cells. FRET signal was acquired on EnVision™ Multilabel Reader (PerkinElmer, Santa Clara, CA, USA).

[3] = target: T3, EGFR T790M/L858R/C797S (NCI-H1975+CS cells) (Homo sapiens, UniProt P00533, C797S/L858R/T790M); assay: EGFR (L858R) degradation analysis, Total EGFR (L858R) HTRF, NCI-H1975+CS cells; details: 6 hours, read-out: H1975 C797S clone EGFR DC50
T3 construct: NCI-H1975+CS (harboring EGFR heterozygous T/790M/L858R/C797S mutations) was generated using CRISPR technology; host or cells: NCI-H1975+CS (CRISPR-edited NCI-H1975)
T3 sequence (P00533 25-1210 T790M/C797S/L858R): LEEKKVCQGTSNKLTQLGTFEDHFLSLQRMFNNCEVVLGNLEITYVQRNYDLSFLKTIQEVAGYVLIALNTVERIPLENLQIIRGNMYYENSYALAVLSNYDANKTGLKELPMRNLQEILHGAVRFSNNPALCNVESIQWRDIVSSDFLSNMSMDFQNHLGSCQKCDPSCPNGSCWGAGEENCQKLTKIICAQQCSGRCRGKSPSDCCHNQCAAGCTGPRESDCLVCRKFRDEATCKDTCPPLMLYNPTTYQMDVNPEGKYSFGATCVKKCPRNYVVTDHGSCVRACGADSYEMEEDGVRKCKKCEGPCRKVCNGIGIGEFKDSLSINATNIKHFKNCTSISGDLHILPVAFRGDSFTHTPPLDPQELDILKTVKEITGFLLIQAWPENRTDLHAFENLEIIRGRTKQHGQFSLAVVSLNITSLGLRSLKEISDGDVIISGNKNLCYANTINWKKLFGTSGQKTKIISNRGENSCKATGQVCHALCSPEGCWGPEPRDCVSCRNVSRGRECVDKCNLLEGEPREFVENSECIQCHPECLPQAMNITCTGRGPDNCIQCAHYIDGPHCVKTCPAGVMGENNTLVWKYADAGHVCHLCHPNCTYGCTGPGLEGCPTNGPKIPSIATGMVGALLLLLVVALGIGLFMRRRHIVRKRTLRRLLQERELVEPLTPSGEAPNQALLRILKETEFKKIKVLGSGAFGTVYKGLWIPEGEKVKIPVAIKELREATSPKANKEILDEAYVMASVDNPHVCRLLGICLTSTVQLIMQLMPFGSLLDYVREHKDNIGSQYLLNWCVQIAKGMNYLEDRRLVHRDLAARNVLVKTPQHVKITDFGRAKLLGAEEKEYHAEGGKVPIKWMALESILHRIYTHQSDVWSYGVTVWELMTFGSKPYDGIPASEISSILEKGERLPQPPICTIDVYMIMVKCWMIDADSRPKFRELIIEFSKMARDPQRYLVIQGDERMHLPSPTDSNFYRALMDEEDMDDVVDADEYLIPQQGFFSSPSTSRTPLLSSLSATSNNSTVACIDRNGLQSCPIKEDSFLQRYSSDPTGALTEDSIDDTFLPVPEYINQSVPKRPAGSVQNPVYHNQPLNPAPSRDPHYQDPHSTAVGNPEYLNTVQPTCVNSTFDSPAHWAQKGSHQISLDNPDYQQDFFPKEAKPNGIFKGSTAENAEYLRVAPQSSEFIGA
Excerpt: as §1, §2

T1 sequence (P00533 25-1210 T790M/L858R): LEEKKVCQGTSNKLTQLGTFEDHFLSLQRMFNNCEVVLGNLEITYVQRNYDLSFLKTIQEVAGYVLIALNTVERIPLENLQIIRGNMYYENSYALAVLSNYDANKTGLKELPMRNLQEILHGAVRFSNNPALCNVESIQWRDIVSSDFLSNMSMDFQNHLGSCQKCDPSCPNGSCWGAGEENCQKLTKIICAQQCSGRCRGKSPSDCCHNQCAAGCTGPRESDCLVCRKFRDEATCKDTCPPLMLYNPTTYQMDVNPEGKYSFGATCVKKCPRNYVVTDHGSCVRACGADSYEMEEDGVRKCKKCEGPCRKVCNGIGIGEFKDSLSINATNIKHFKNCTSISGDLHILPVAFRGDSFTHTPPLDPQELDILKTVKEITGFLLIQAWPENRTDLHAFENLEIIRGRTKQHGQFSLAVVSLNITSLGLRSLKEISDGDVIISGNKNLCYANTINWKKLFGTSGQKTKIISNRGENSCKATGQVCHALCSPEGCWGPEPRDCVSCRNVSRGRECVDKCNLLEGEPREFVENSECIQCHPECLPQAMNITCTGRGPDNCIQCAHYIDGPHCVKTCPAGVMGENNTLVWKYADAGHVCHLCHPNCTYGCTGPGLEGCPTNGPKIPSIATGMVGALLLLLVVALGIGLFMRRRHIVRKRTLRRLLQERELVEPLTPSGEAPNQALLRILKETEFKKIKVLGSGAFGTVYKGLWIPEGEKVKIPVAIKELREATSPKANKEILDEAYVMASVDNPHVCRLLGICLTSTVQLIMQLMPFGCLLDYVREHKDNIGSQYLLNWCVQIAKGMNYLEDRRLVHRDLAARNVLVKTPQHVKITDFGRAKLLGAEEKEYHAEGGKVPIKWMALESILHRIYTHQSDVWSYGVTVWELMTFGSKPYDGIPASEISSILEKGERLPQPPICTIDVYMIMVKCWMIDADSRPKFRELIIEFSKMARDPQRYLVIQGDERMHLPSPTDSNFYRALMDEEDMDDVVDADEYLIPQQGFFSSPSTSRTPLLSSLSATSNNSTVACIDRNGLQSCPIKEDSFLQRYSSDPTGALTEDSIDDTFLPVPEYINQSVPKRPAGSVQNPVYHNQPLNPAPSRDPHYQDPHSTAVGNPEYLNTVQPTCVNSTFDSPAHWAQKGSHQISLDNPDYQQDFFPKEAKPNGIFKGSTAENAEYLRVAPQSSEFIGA

Row | Structure (SMILES) | DC50 [1] | DC50 [2] | DC50 [3]
1 | O=C1CCC(Nc2ccc(C3CCN(CC(=O)N4CCN(c5ccc(-c6cc(F)c7c(c6)C(=O)N(C(C(=O)Nc6nccs6)c6ncn8c6CCC8)C7)cc5)CC4)CC3)c(C(F)F)c2)C(=O)N1 (stereo not drawn) [Compound 15, 2-[6-[4-[4-[2-[4-[2-(difluoromethyl)-4-[(2,6-dioxo-3-piperidyl)amino]phenyl]-1-piperidyl]acetyl]piperazin-1-yl]phenyl]-4-fluoro-1-oxo-isoindolin-2-yl]-2-(6,7-dihydro-5H-pyrrolo[1,2-c]imidazol-1-yl)-N-thiazol-2-yl-acetamide] | 34 nM | 6 nM | 10 nM
2 | O=C1CCC(Nc2ccc(C3CCN(CC(=O)N4CCN(c5ccc(-c6cc(F)c7c(c6)C(=O)N(C(C(=O)Nc6ccccn6)c6ncn8c6CCC8)C7)cc5)CC4)CC3)cc2)C(=O)N1 (stereo not drawn) [Compound 19, 2-(6,7-dihydro-5H-pyrrolo[1,2-c]imidazol-1-yl)-2-(6-(4-(4-(2-(4-(4-((2,6-dioxopiperidin-3-yl)amino)phenyl)piperidin-1-yl)acetyl)piperazin-1-yl)phenyl)-4-fluoro-1-oxoisoindolin-2-yl)-N-(pyridin-2-yl)acetamide] | 50 nM | 13 nM | 20 nM
3 | O=C1CCC(Nc2ccc(C3CCN(CC(=O)N4CCN(c5ccc(-c6cc(F)c7c(c6)C(=O)N(C(C(=O)Nc6ccccn6)c6ncn8c6CCC8)C7)cc5)CC4)CC3)c(F)c2)C(=O)N1 (stereo not drawn) [Compound 20, 2-(6,7-dihydro-5H-pyrrolo[1,2-c]imidazol-1-yl)-2-[6-[4-[4-[2-[4-[4-[(2,6-dioxo-3-piperidyl)amino]-2-fluoro-phenyl]-1-piperidyl]acetyl]piperazin-1-yl]phenyl]-4-fluoro-1-oxo-isoindolin-2-yl]-N-(2-pyridyl)acetamide] | 59 nM | 25 nM | 34 nM
4 | O=C1CC[C@@H](Nc2ccc(C3CCN(CC(=O)N4CCC(c5ccc(-c6cc(F)c7c(c6)C(=O)N(C(C(=O)Nc6nccs6)c6ncn8c6CCC8)C7)cc5)CC4)CC3)c(F)c2)C(=O)N1 (stereo partly drawn) [Compound 24, 2-(6,7-dihydro-5H-pyrrolo[1,2-c]imidazol-1-yl)-2-(6-(4-(1-(2-(4-(4-(((R)-2,6-dioxopiperidin-3-yl)amino)-2-fluorophenyl)piperidin-1-yl)acetyl)piperidin-4-yl)phenyl)-4-fluoro-1-oxoisoindolin-2-yl)-N-(thiazol-2-yl)acetamide] | 70 nM | 6 nM | 24 nM
5 | O=C1CCC(Nc2ccc(C3CCN(CC(=O)N4CCN(c5ccc(-c6cc(F)c7cn(C(C(=O)Nc8nccs8)c8ncn9c8CCC9)nc7c6)cn5)CC4)CC3)nc2)C(=O)N1 (stereo not drawn) [Compound 66, 2-(6,7-dihydro-5H-pyrrolo[1,2-c]imidazol-1-yl)-2-[6-[6-[4-[2-[4-[5-[(2,6-dioxo-3-piperidyl)amino]-2-pyridyl]-1-piperidyl]acetyl]piperazin-1-yl]-3-pyridyl]-4-fluoro-indazol-2-yl]-N-thiazol-2-yl-acetamide] | 33 nM | 31 nM | –

These reach a lower DC50 [1]. Values come first.

Row | DC50 [1] | DC50 [2] | DC50 [3] | Structure (SMILES)
6 | 13 nM | 6 nM | 18 nM | O=C1CCC(Nc2ccc(C3CCN(CC(=O)N4CCN(c5ccc(-c6cc(F)c7c(c6)C(=O)N(C(C(=O)Nc6nccs6)c6ncn8c6C[C@@H](F)C8)C7)cc5)CC4)CC3)cc2)C(=O)N1 (mixture of isomers) [Compound 43, (2RS)-2-[6-[4-[4-[2-[4-[4-[[(3RS)-2,6-Dioxo-3-piperidyl]amino]phenyl]-1-piperidyl]acetyl]piperazin-1-yl]phenyl]-4-fluoro-1-oxo-isoindolin-2-yl]-2-[(6R)-6-fluoro-6,7-dihydro-5H-pyrrolo[1,2-c]imidazol-1-yl]-N-thiazol-2-yl-acetamide]
7 | 6 nM | 8 nM | 17 nM | O=C1CCC(Nc2ccc(C3CCN(CC(=O)N4CCC(NC(=O)c5ccc(C#Cc6cc(F)c7c(c6)C(=O)N(C(C(=O)Nc6nccs6)c6ncn8c6CCC8)C7)cn5)CC4)CC3)cc2)C(=O)N1 (racemic) [Compound 1, 5-[2-[7-Fluoro-3-oxo-2-[(1RS)-1-(6,7-dihydro-5H-pyrrolo[1,2-c]imidazol-1-yl)-2-oxo-2-(thiazol-2-ylamino)ethyl]isoindolin-5-yl]ethynyl]-N-[1-[2-[4-[4-[[(3RS)-2,6-dioxo-3-piperidyl]amino]phenyl]-1-piperidyl]acetyl]-4-piperidyl]pyridine-2-carboxamide]
8 | 20 nM | 6 nM | 17 nM | O=C1CCC(Nc2ccc(C3CCN(CC(=O)N4CCN(c5ccc(-c6cc(F)c7c(c6)C(=O)N(C(C(=O)Nc6nccs6)c6ncn8c6CCC8)C7)cc5)CC4)CC3)cc2)C(=O)N1 (stereo not drawn) [Compound 5, 2-(6,7-dihydro-5H-pyrrolo[1,2-c]imidazol-1-yl)-2-[6-[4-[4-[2-[4-[4-[(2,6-dioxo-3-piperidyl)amino]phenyl]-1-piperidyl]acetyl]piperazin-1-yl]phenyl]-4-fluoro-1-oxo-isoindolin-2-yl]-N-thiazol-2-yl-acetamide]
9 | 22 nM | 7 nM | 8 nM | O=C1CC[C@H](Nc2ccc(C3CCN(CC(=O)N4CCN(c5ccc(-c6cc(F)c7c(c6)C(=O)N(C(C(=O)Nc6nccs6)c6ncn8c6CCC8)C7)cc5)CC4)CC3)cc2)C(=O)N1 (stereo partly drawn) [Compound 6, 2-(6,7-dihydro-5H-pyrrolo[1,2-c]imidazol-1-yl)-2-[6-[4-[4-[2-[4-[4-[[(3S)-2,6-dioxo-3-piperidyl]amino]phenyl]-1-piperidyl]acetyl]piperazin-1-yl]phenyl]-4-fluoro-1-oxo-isoindolin-2-yl]-N-thiazol-2-yl-acetamide]
10 | 29 nM | 6 nM | 22 nM | Cn1nc(N2CCC(=O)NC2=O)c2ccc(C3CCN(CC(=O)N4CCN(c5ccc(-c6cc(F)c7c(c6)C(=O)N(C(C(=O)Nc6nccs6)c6ncn8c6CCC8)C7)cc5)CC4)CC3)cc21 (stereo not drawn) [Compound 17, 2-(6,7-dihydro-5H-pyrrolo[1,2-c]imidazol-1-yl)-2-(6-(4-(4-(2-(4-(3-(2,4-dioxotetrahydropyrimidin-1(2H)-yl)-1-methyl-1H-indazol-6-yl)piperidin-1-yl)acetyl)piperazin-1-yl)phenyl)-4-fluoro-1-oxoisoindolin-2-yl)-N-(thiazol-2-yl)acetamide]
11 | 31 nM | 11 nM | 17 nM | O=C1CCC(Nc2ccc(C3CCN(CC(=O)N4CCC(c5ccc(-c6cc(F)c7c(c6)C(=O)N(C(C(=O)Nc6nccs6)c6ncn8c6CCC8)C7)cc5)CC4)CC3)cc2)C(=O)N1 (stereo not drawn) [Compound 21, 2-(6,7-dihydro-5H-pyrrolo[1,2-c]imidazol-1-yl)-2-(6-(4-(1-(2-(4-(4-((2,6-dioxopiperidin-3-yl)amino)phenyl)piperidin-1-yl)acetyl)piperidin-4-yl)phenyl)-4-fluoro-1-oxoisoindolin-2-yl)-N-(thiazol-2-yl)acetamide]
12 | 27 nM | 50 nM | – | Cn1nc(N2CCC(=O)NC2=O)c2ccc(C3CCN(CC(=O)N4CCN(c5ccc(-c6cc(F)c7cn(C(C(=O)Nc8nccs8)c8ncn9c8CCC9)nc7c6)cn5)CC4)CC3)cc21 (stereo not drawn) [Compound 67, 2-(6,7-dihydro-5H-pyrrolo[1,2-c]imidazol-1-yl)-2-[6-[6-[4-[2-[4-[3-(2,4-dioxohexahydropyrimidin-1-yl)-1-methyl-indazol-6-yl]-1-piperidyl]acetyl]piperazin-1-yl]-3-pyridyl]-4-fluoro-indazol-2-yl]-N-thiazol-2-yl-acetamide]
13 | 28 nM | 34 nM | – | O=C1CC[C@H](Nc2ccc(C3CCN(CC(=O)N4CCN(c5ccc(-c6cc(F)c7cn(C(C(=O)Nc8nccs8)c8ncn9c8CCC9)nc7c6)cn5)CC4)CC3)c(F)c2)C(=O)N1 (stereo partly drawn) [Compound 68, 2-(6,7-dihydro-5H-pyrrolo[1,2-c]imidazol-1-yl)-2-(6-(6-(4-(2-(4-(4-(((S)-2,6-dioxopiperidin-3-yl)amino)-2-fluorophenyl)piperidin-1-yl)acetyl)piperazin-1-yl)pyridin-3-yl)-4-fluoro-2H-indazol-2-yl)-N-(thiazol-2-yl)acetamide]
